# Measured values: PubChem BioAssay AID2060492 (Molecular Pharmacology Branch, DTP, NCI, 2025)
# Test system: 695427-040-R-J1-PDC complex spheroids, viability percent T/C
# Assay: Anticancer human tumor 695427-040-R-J1-PDC patient-derived colon adenocarcinoma cell line growth inhibition [GQUAD]
# Settings: for IC50: curve of first compound; for viability, T/C: stronger effect = lower value
# Source text: DNA G-quadruplex Stabilizer Agents in Combinations in Complex Spheroids
# A high-throughput screen of multi-cell type tumor spheroids was designed to identify active combinations of DNA G-quadruplex stabilizer agents and targeted small molecules. Complex spheroids include a stromal component modeled by human endothelial cells (HUVEC) and fibroblasts modeled by human mesenchymal stem cells (MSCs). The concentration ranges selected for each drug and investigational agent were based upon clinically achievable concentrations if the clinical Cmax of the agent was known.
# Compounds. The drugs and investigational agents: pidnarulex (CX-5461; NSC782164), APTO-253 (NSC789042), BRACO-19 (NSC847499), peposertib (NSC802822), ceralasertib (NSC780249), elimusertib (NSC800525), camonsertib (NSC841442), AZD-1390 (NSC803789), olaparib (NSC753686), talazoparib (NSC767125), ART-558 (NSC835418), sotorasib (NSC818433), MRTX-1133 (NSC836407), SN-38 (NSC673596), topotecan (NSC609699), etoposide (NSC141540), doxorubicin (NSC123127), gemcitabine (NSC613327), 5-fluorouracil (NSC19893), paclitaxel (NSC125973), vemurafenib (NSC761431), panobinostat (NSC761190), R-306465 (JNJ-16241199; NSC773264), adavosertib (NSC754352), TP-3654 (NSC805149), carboplatin (NSC241240), KSQ-4279 (NSC840948), and staurosporine (NSC755774) were obtained from the National Cancer Institute (NCI) Developmental Therapeutics Program Chemical Repository (34). The FDA-approved anticancer drug set is available from the NCI Developmental Therapeutics Program. […] The stock solutions were prepared in dimethyl sulfoxide (DMSO, Sigma-Aldrich, St. Louis, MO, cat. D2650) at 800-fold the tested concentration and stored at -70 degrees C prior to their use. All drugs and investigational agents were tested over a range starting from a high concentration at or near the clinical Cmax and decreasing in half-log increments. If the clinical Cmax for an agent had not been determined, the highest concentration tested was 10 microM.
# 2.3 Cell Culture. All cells were maintained in an incubator at 37 degrees C and 5% CO2 with 95% humidity. The PDC lines were cultured according to standard operating procedures established by the NCI PDMR. All PDCs were thawed and cultured in Matrigel-coated flasks prepared with a working solution of 1X Ham's F-12 nutrient mix, without supplementation (Invitrogen, cat. 11765054), 100 U/mL penicillin-streptomycin (Invitrogen, cat. 15140122), and 2.5% Matrigel (Corning Inc., cat. 354248) for the first three passages. The 857933-349-R-J2-PDC line was cultured in 6C/Colon 1B media, which includes advanced DMEM/F-12 (Thermo Fisher Scientific, cat. 12634028), 10 mM HEPES (Thermo Fisher Scientific, cat. 15630080), 1X GlutaMAX supplement (Thermo Fisher Scientific, cat. 35050061), 0.1 mg/mL primocin (InvivoGen, cat. ant-pm-2), 10% defined fetal bovine serum, heat inactivated (HyClone Laboratories Inc., cat. SH30070.03HI), 50% L-WRN conditioned media (ATCC, cat. CRL-3276), 1.25 mM N-Acetyl-L-cysteine (Sigma-Aldrich, cat. A9165), 10 mM nicotinamide (Sigma-Aldrich, cat. N0636), 1X B-27 supplement (Thermo Fisher Scientific, cat. 17504044), 1X N-2 supplement (Thermo Fisher Scientific, cat. 17502048), 10 microM Y-27632 dihydrochloride (Tocris Bioscience, cat. 1254), and 50 ng/mL human EGF recombinant protein (Thermo Fisher Scientific, cat. PHG0311). The 485176-168-R4-J1-PDC line was cultured in Panc media, which includes all 6C/Colon 1B media components plus 100 ng/mL human FGF-10 (Thermo Fisher Scientific, cat. 100-26), 500 nM SB-431542 (Selleckchem, cat. S1067), and gastrin (Tocris, cat. 3006).
# […]
# 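Also: spheroids exposed to compounds for seven days before readout.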
compound,measurement,setting,value
COc1ncnc(C2CC2)c1-c1ncc2cnn(Cc3ccc(-c4nc(C(F)(F)F)cn4C(C)C)cc3)c2n1 + Cc1cnc(CNC(=O)c2c(=O)c3ccc(N4CCCN(C)CC4)nc3n3c2sc2ccccc23)cn1,IC50,second compound 0.0316 µM,> 10 µM
same,IC50,second compound 0.1 µM,> 10 µM
same,IC50,second compound 0.316 µM,> 10 µM
same,IC50,second compound 1 µM,> 10 µM
same,IC50,second compound 3.16 µM,< 0.0316 µM
same,IC50,second compound 10 µM,< 0.0316 µM
same,"viability, T/C","second compound 0.0316 µM, first compound 0.0316 µM",104%
same,"viability, T/C","second compound 0.0316 µM, first compound 0.1 µM",75.9%
same,"viability, T/C","second compound 0.0316 µM, first compound 0.316 µM",80.3%
same,"viability, T/C","second compound 0.0316 µM, first compound 1 µM",62.4%
same,"viability, T/C","second compound 0.0316 µM, first compound 3.16 µM",83.7%
same,"viability, T/C","second compound 0.0316 µM, first compound 10 µM",75.6%
same,"viability, T/C","second compound 0.1 µM, first compound 0.0316 µM",90.4%
same,"viability, T/C","second compound 0.1 µM, first compound 0.1 µM",63.2%
same,"viability, T/C","second compound 0.1 µM, first compound 0.316 µM",71.9%
same,"viability, T/C","second compound 0.1 µM, first compound 1 µM",81.4%
same,"viability, T/C","second compound 0.1 µM, first compound 3.16 µM",72.1%
same,"viability, T/C","second compound 0.1 µM, first compound 10 µM",79.7%
same,"viability, T/C","second compound 0.316 µM, first compound 0.0316 µM",66.3%
same,"viability, T/C","second compound 0.316 µM, first compound 0.1 µM",67.9%
same,"viability, T/C","second compound 0.316 µM, first compound 0.316 µM",58.5%
same,"viability, T/C","second compound 0.316 µM, first compound 1 µM",65.2%
same,"viability, T/C","second compound 0.316 µM, first compound 3.16 µM",62.8%
same,"viability, T/C","second compound 0.316 µM, first compound 10 µM",69.2%
same,"viability, T/C","second compound 1 µM, first compound 0.0316 µM",56.1%
same,"viability, T/C","second compound 1 µM, first compound 0.1 µM",58.1%
same,"viability, T/C","second compound 1 µM, first compound 0.316 µM",70%
same,"viability, T/C","second compound 1 µM, first compound 1 µM",64.5%
same,"viability, T/C","second compound 1 µM, first compound 3.16 µM",68.4%
same,"viability, T/C","second compound 1 µM, first compound 10 µM",73.9%
same,"viability, T/C","second compound 3.16 µM, first compound 0.0316 µM",34.3%
same,"viability, T/C","second compound 3.16 µM, first compound 0.1 µM",37.7%
same,"viability, T/C","second compound 3.16 µM, first compound 0.316 µM",42.8%
same,"viability, T/C","second compound 3.16 µM, first compound 1 µM",43%
same,"viability, T/C","second compound 3.16 µM, first compound 3.16 µM",53.2%
same,"viability, T/C","second compound 3.16 µM, first compound 10 µM",45.8%
same,"viability, T/C","second compound 10 µM, first compound 0.0316 µM",18.6%
same,"viability, T/C","second compound 10 µM, first compound 0.1 µM",31.1%
same,"viability, T/C","second compound 10 µM, first compound 0.316 µM",43.1%
same,"viability, T/C","second compound 10 µM, first compound 1 µM",29.9%
same,"viability, T/C","second compound 10 µM, first compound 3.16 µM",34.6%
same,"viability, T/C","second compound 10 µM, first compound 10 µM",24.1%
